Source: article PMC9995496, “A screen for MeCP2-TBL1 interaction inhibitors using a luminescence-based assay” (Scientific Reports, 2023)
Counter-ions that a name gives are not always drawn. Like-named read-outs stand apart in the source and are kept apart here.

Tested on: PRKACA-PRKAR2A interaction (SmBiT-PRKACA / LgBiT-PRKAR2A), protein kinase A
Design: NanoLuc complementation counter-screen in cell extract, PRKACA with PRKAR2A, loss of luminescence, detects NanoLuc interference
Conditions: 0.5 h, 20 µM, inhibitor
[1] = counter-screen for NanoLuc interference
[2] = counter-screen for NanoLuc interference, Inh (PKA)

SMILES	Inh (PKA) [1]	further results
CC(C)(CO)c1cc2cc(NC(=O)C3(c4ccc5c(c4)OC(F)(F)O5)CC3)c(F)cc2n1C[C@@H](O)CO [UM0141480:01, VX-661]	12.93%	–
Cc1cc(C(C)Nc2ccccc2)c2nc(N3CCOCC3)cc(=O)n2c1 (stereo not shown) [UM0141481:01, TGX-221]	45.75%	–
Nc1nc(N)c2nc(-c3cccc(O)c3)c(-c3cccc(O)c3)nc2n1 [UM0141482:01, TG100-115]	37.25%	–
CN(C)CCN1C(=O)c2cccc3cc(N)cc(c23)C1=O [UM0141483:01, Amonafide]	12.14%	–
O=C(Nc1cccc(Nc2ncc(Br)c(NCCc3cnc[nH]3)n2)c1)N1CCCC1 [UM0141484:01, BX-912]	45.28%	–
Cc1c(NC(=O)OC[C@@H]2COCCN2)cn2ncnc(Nc3ccc4c(cnn4Cc4cccc(F)c4)c3)c12 [UM0141485:01, AC480 (BMS-599626)]	24.24%	–
O=C(Nc1ccc(OC(F)(F)F)cc1)c1sccc1NCc1ccnc2ccccc12 [UM0141486:01, OSI-930]	39.72%	–
NCC(=O)Nc1ccc(-n2nc(C(F)(F)F)cc2-c2ccc3c(ccc4ccccc43)c2)cc1 [UM0141487:01, OSU-03012 (AR-12)]	5.116%	–
NC(=O)Cc1cccc(C(=O)c2ccccc2)c1N [UM0141488:01, Nepafenac]	7.116%	–
Cc1ccc(F)c(NC(=O)Nc2ccc(-c3cccc4[nH]nc(N)c34)cc2)c1 [UM0141489:01, Linifanib (ABT-869)]	45.3%	–
COc1cc2c(Oc3ccc(NC(=O)C4(C(=O)Nc5ccc(F)cc5)CC4)cc3F)ccnc2cc1OCCCN1CCOCC1 [UM0141490:01, Foretinib (GSK1363089)]	3.567%	–
COc1cc2nccc(Oc3ccc(NC(=O)C4(C(=O)Nc5ccc(F)cc5)CC4)cc3)c2cc1OC [UM0141491:01, Cabozantinib (XL184, BMS-907351)]	–	Inh (PKA) [2]: 10.46%
CCN(CC)C(=O)c1ccc(C2=CC3(CCNCC3)Oc3cccc(O)c32)cc1 [UM0141492:01, ADL5859 HCl]	2.676%	–
C=CC(=O)N1CCC[C@@H](n2nc(-c3ccc(Oc4ccccc4)cc3)c3c(N)ncnc32)C1 [UM0141493:01, PCI-32765 (Ibrutinib)]	23.88%	–
CC[C@H](Nc1ncnc2[nH]cnc12)c1nc2cccc(F)c2c(=O)n1-c1ccccc1 [UM0141495:01, CAL-101 (Idelalisib, GS-1101)]	7.222%	–
CC(C)NC[C@@H](C(=O)N1CCN(c2ncnc3c2[C@H](C)C[C@H]3O)CC1)c1ccc(Cl)cc1 [UM0141496:01, GDC-0068 (RG7440)]	42.22%	–
CC1(C)CCC(c2ccc(Cl)cc2)=C(CN2CCN(c3ccc(C(=O)NS(=O)(=O)c4ccc(N[C@H](CCN5CCOCC5)CSc5ccccc5)c(S(=O)(=O)C(F)(F)F)c4)cc3)CC2)C1 [UM0141497:01, ABT-263 (Navitoclax)]	-0.2397%	–
C[C@@H](N)[C@H]1CC[C@H](C(=O)Nc2ccncc2)CC1 [UM0141498:01, Y-27632 dihydrochloride]	–	Inh (PKA) [2]: -3.616%
C[C@@H](N)[C@H]1CC[C@H](C(=O)Nc2ccncc2)CC1 [UM0141498:02, Y-27632]	–	Inh (PKA) [2]: -5.28%
Cc1cnc(-c2cnc(NCCNc3ccc(C#N)cn3)nc2-c2ccc(Cl)cc2Cl)[nH]1 [UM0141499:01, CHIR-99021 (CT99021)]	50.27%	–

SMILES	Inh (PKA) [1]	further results
N#CC[C@H](C1CCCC1)n1cc(-c2ncnc3[nH]ccc23)cn1 [UM0141500:01, Ruxolitinib (INCB018424)]	–	Inh (PKA) [2]: 28.73%
CCN1CCN(c2ccc(Nc3cc(N(C)C(=O)Nc4c(Cl)c(OC)cc(OC)c4Cl)ncn3)cc2)CC1 [UM0141502:01, BGJ398]	-0.1399%	–
Nc1cc(C(F)(F)F)c(-c2cc(N3CCOCC3)nc(N3CCOCC3)n2)cn1 [UM0141503:01, BKM120]	7.459%	–
CN[C@@H](C)C(=O)N[C@H]1CN(C(=O)CC(C)C)CC[C@H]2CC[C@@H](C(=O)NC(c3ccccc3)c3ccccc3)N2C1=O [UM0141504:01, AT-406 (SM-406)]	0.8145%	–
C[C@@H](Oc1cc(-c2cnn(C3CCNCC3)c2)cnc1N)c1c(Cl)ccc(F)c1Cl [UM0141505:01, (R)-Crizotinib]	10.35%	–
Nc1ncnc2c1c(I)cn2[C@@H]1O[C@H](CO)[C@@H](O)[C@H]1O [UM0141507:01, 5-Iodotubercidin]	18.13%	–
O=C(NC[C@@H]1CN(c2ccc(N3CCOCC3=O)cc2)C(=O)O1)c1ccc(Cl)s1 [UM0141508:01, 5-R-Rivaroxaban]	3.342%	–
Cc1n[nH]c2ccc(-c3cncc(OC[C@@H](N)Cc4c[nH]c5ccccc45)c3)cc12 [UM0141510:01, A-443654]	34.74%	–
Nc1nc(NC2CC2)c2ncn([C@H]3C=C[C@@H](CO)C3)c2n1 [UM0141511:01, Abacavir]	2.063%	–
CN(C)C/C=C/C(=O)Nc1cc2c(Nc3ccc(F)c(Cl)c3)ncnc2cc1O[C@H]1CCOC1 [UM0141512:01, Afatinib dimaleate]	–	Inh (PKA) [2]: 6.216%
CN(C)C/C=C/C(=O)Nc1cc2c(Nc3ccc(F)c(Cl)c3)ncnc2cc1O[C@H]1CCOC1 [UM0141512:02, Afatinib (BIBW2992)]	–	Inh (PKA) [2]: 5.289%
O=C(Nc1cccc(C(F)(F)F)c1)Nc1cc(S(=O)(=O)NC2CC2)ccc1-c1ccsc1 [UM0141513:01, AGI-6780]	24.76%	–
Cn1c(=O)cc(N2CCC[C@@H](N)C2)n(Cc2ccccc2C#N)c1=O [UM0141514:01, Alogliptin Benzoate]	–	Inh (PKA) [2]: 3.371%
N#Cc1ccc(Oc2ccc3c(c2)COB3O)cc1 [UM0141516:01, AN-2728]	2.062%	–
COc1cc2cc(c1Cl)N(C)C(=O)C[C@H](OC(=O)C(C)C)[C@]1(C)O[C@@H]1[C@H](C)[C@@H]1C[C@@](O)(NC(=O)O1)[C@H](OC)/C=C/C=C(\C)C2 [UM0141517:01, Ansamitocin P-3]	–	Inh (PKA): 6.121%
N#CC(c1ccnc(OCc2ccc(CN3CCOCC3)cc2)n1)c1nc2ccccc2s1 (stereo not shown) [UM0141518:01, AS 602801]	8.348%	–
CC[C@@H]1/C=C(\C)C[C@H](C)C[C@H](OC)[C@H]2O[C@@](O)(C(=O)C(=O)N3CCCC[C@H]3C(=O)O[C@H](/C(C)=C/[C@@H]3CC[C@@H](O)[C@H](OC)C3)[C@H](C)[C@@H](O)CC1=O)[C@H](C)C[C@@H]2OC [UM0141519:01, Ascomycin(FK 520)]	–	Inh (PKA): 13.3
COc1cc(N2CCC(N3CCN(C)CC3)CC2)ccc1Nc1ncnc(Nc2ccccc2S(=O)(=O)C(C)C)n1 [UM0141520:01, ASP3026]	2.084%	–
C=C[C@@H]1C[C@]1(NC(=O)[C@@H]1C[C@@H](Oc2ncc(OC)c3ccc(Cl)cc23)CN1C(=O)[C@@H](NC(=O)OC(C)(C)C)C(C)(C)C)C(=O)NS(=O)(=O)C1CC1 [UM0141521:01, Asunaprevir (BMS-650032)]	-7.752%	–
C=CC(=O)Nc1cccc(Nc2nc(Nc3ccc(OCCOC)cc3)ncc2F)c1 [UM0141522:01, AVL-292]	22.87%	–

SMILES	Inh (PKA) [1]	further results
COc1cc([C@@H]2c3cc4c(cc3[C@H](O)[C@H]3COC(=O)[C@@H]23)OCO4)cc(OC)c1OC [UM0141523:01, AXL1717]	8.722%	–
C[C@@H]1COCCN1c1cc(C2(S(C)(=O)=O)CC2)nc(-c2cccc3[nH]ccc23)n1 [UM0141524:01, AZ20]	9.96%	–
CCN(CCCOc1ccc2c(Nc3cc(CC(=O)Nc4cccc(F)c4)[nH]n3)ncnc2c1)CCOP(=O)(O)O [UM0141525:01, AZD1152]	8.114%	–
COC(=O)[C@]12CCC(C)(C)C[C@H]1[C@H]1C(=O)C=C3[C@@]4(C)C=C(C#N)C(=O)C(C)(C)[C@@H]4CC[C@@]3(C)[C@]1(C)CC2 [UM0141526:01, Bardoxolone methyl]	12.18%	–
CNCc1ccc(C)c(NC(=O)c2ccc(Nc3nc(-c4ccccc4)c4ccccc4n3)cc2)c1 [UM0141527:01, BMS-833923]	45.75%	–
C=CC(=O)Nc1cc(-n2c(=O)ccc3cnc4ccc(-c5ccc(NS(C)(=O)=O)cc5)cc4c32)ccc1C [UM0141528:01, BMX-IN-1]	6.521%	–
CC(C)(C)NC(=O)N[C@H](C(=O)N1C[C@H]2[C@@H]([C@H]1C(=O)NC(CC1CCC1)C(=O)C(N)=O)C2(C)C)C(C)(C)C (stereo partly shown) [UM0141529:01, Boceprevir]	1.202%	–
Cc1c(NC(=O)c2ccc(C(C)(C)C)cc2)cccc1-c1cn(C)c(=O)c(Nc2ccc(C(=O)N3CCOCC3)cc2)n1 [UM0141530:01, CGI-1746]	10.06%	–
C[C@@H](O)[C@H](NC(=O)c1ccc(C#Cc2ccc(CN3CCOCC3)cc2)cc1)C(=O)NO [UM0141531:01, CHIR-090]	2.568%	–
C=CC(=O)Nc1cccc(Nc2nc(Nc3ccc(N4CCN(C(C)=O)CC4)cc3OC)ncc2C(F)(F)F)c1 [UM0141532:01, CO-1686 (AVL-301)]	17.5%	–
O=C(c1ccc(F)c(F)c1Nc1ccc(I)cc1F)N1CC(O)([C@@H]2CCCCN2)C1 [UM0141533:01, Cobimetinib]	6.124%	–
C=C1C(=O)O[C@@H]2/C=C(\C)CC/C=C(\C)CC[C@@H]12 [UM0141534:01, Costunolide]	4.671%	–
COc1cc(/C=C/C(=O)CC(=O)/C=C/c2ccc(O)c(OC)c2)ccc1O [UM0141535:01, Curcumin]	70.09%	–
CN1CCCN(C(=O)c2cccc(-c3ccc(/C=C4/C(=O)Nc5ccc(Cl)cc54)o3)c2)CC1 [UM0141536:01, CX-6258]	48.23%	–
CC(C)(C)NS(=O)(=O)c1cncc(-c2cc(F)c3nc(N)nn3c2)c1 [UM0141537:01, CZC24832]	2.566%	–
S=C(S)O[C@@H]1C[C@@H]2C[C@@H]1[C@H]1CCC[C@@H]21 [UM0141538:01, D609]	17.68%	–
CCCCCCOC(=O)NC(=N)c1ccc(NCc2nc3cc(C(=O)N(CCC(=O)OCC)c4ccccn4)ccc3n2C)cc1 [UM0141539:01, Dabigatran etexilate mesylate]	–	Inh (PKA) [2]: 7.702%
CC(C)(C)c1nc(-c2cccc(NS(=O)(=O)c3c(F)cccc3F)c2F)c(-c2ccnc(N)n2)s1 [UM0141540:01, Dabrafenib Mesylate (GSK-2118436)]	–	Inh (PKA) [2]: 39.79%
